Results reported in patent publication US9409905B2, “Antibacterial compounds and methods for use” (PTC THERAPEUTICS, INC., priority 2011, dated 2016).
Values after ≈ are worked out from the molar mass of the structure shown.

Tests used:
[1] = test system: Escherichia coli (E. coli) BAS849; assay: Antibacterial activity, microbroth dilution MIC (Table 1); type: cell-based; details: microbroth dilution, super sensitive Gram-negative E. coli BAS849, read-out: MIC, BAS849
Method in brief: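 Values are MICs (μg/mL): the smallest drug amount at which macroscopically visible bacterial growth is absent under assay conditions, from a microdilution method in broth.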

[2] = test system: Staphylococcus aureus (S. aureus) 29213; assay: as above; type: cell-based; details: microbroth dilution, Gram-positive S. aureus 29213, read-out: MIC, 29213
Method in brief: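 In a microbroth dilution test, the minimum inhibitory concentration was defined as the lowest compound level preventing growth seen by eye, and was given in μg/mL.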

[3] = test system: E. coli 25922; assay: as above; type: cell-based, Escherichia coli; details: Escherichia coli; microbroth dilution; control Gram-negative E. coli 25922 strain; read-out: MIC, 25922
Method in brief: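 Microbroth dilution was used. MIC, in μg/mL, is the lowest drug concentration preventing macroscopically visible growth under the test conditions.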

[4] = test system: E. coli LZ3111; assay: Antibacterial activity, MIC, quinolone resistant strain (Table 2); type: cell-based; details: Escherichia coli, LZ3111, read-out: MIC LZ3111
Method in brief: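 Growth inhibition assessed by serial drug dilution in broth; endpoint was absence of macroscopically visible growth, reported as MIC, μg/mL.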

[5] = test system: Acinetobacter baumannii (A. baumannii) BAA747; assay: Antibacterial activity, MIC (Table 4); type: cell-based; details: A. baumannii BAA747, read-out: MIC, BAA747
Excerpt: (§1) The antibacterial activity from a microbroth dilution method may be presented as the minimum inhibitory concentration (MIC in μg/mL). The MIC value is the lowest concentration of drug which prevents macroscopically visible growth under test conditions.
(§2) Antibacterial activity of test compounds against the Gram-negative Acinetobacter baumannii (A. baumannii) BAA747 and Klebsiella pneumoniae (K. pneumoniae) 35657 bacterium and the resistant A. baumannii MXX2240 and K. pneumoniae MXX1232 strains are shown in Table 4. The MMX strains are multi-drug resistant clinical isolates.

[6] = test system: Klebsiella pneumoniae (K. pneumoniae) 35657; assay: Antibacterial activity, MIC (Table 4); type: cell-based; details: K. pneumoniae 35657, read-out: MIC, 35657
Excerpt: as §1, §2

[7] = test system: A. baumannii MXX2240; assay: Antibacterial activity, MIC, resistant strain (Table 4); type: cell-based; details: Acinetobacter baumannii, MXX2240; resistant A. baumannii MMX2240, multi-drug resistant clinical isolate; read-out: MIC, MMX2240
Excerpt: as §1, §2

[8] = test system: K. pneumoniae MXX1232; assay: as above; type: cell-based; details: Klebsiella pneumoniae, MXX1232; resistant K. pneumoniae MMX1232, multi-drug resistant clinical isolate; read-out: MIC, MMX1232
Excerpt: as §1, §2

[9] = test system: Pseudomonas aeruginosa (P. aeruginosa) 27853; assay: Antibacterial activity, MIC (Table 5); type: cell-based; details: P. aeruginosa 27853, read-out: MIC, 27853
Excerpt: as §1
Antibacterial activity of test compounds against the Gram-negative bacterium Pseudomonas aeruginosa (P. aeruginosa) 27853 is shown in Table 5.

CCc1cc(C(=O)O)c(=O)[nH]c1-c1ccc2nccn2c1.Cl [Cpd 51, 5-ethyl-6-(imidazo[1,2-a]pyridin-6-yl)-2-oxo-1,2-dihydropyridine-3-carboxylic acid hydrochloride]
MIC [1]: 12.5 to 150 µg/mL | MIC [2]: 12.5 to 150 µg/mL | MIC [3]: 12.5 to 150 µg/mL | MIC [4]: 12.5 to 150 µg/mL | MIC [5]: 12.5 to 150 µg/mL | MIC [6]: 12.5 to 150 µg/mL | MIC [7]: 12.5 to 150 µg/mL | MIC [8]: 12.5 to 150 µg/mL | MIC [9]: 12.5 to 150 µg/mL

CCNCc1cc2ccc(-c3[nH]c(=O)c(C(=O)O)c(O)c3CC)cc2[nH]1.Cl [Cpd 442, 5-ethyl-6-(2-((ethylamino)methyl)-1H-indol-6-yl)-4-hydroxy-2-oxo-1,2-dihydropyridine-3-carboxylic acid hydrochloride]
MIC [1]: 1 to 3.5 µg/mL | MIC [2]: 12.5 to 150 µg/mL | MIC [3]: 3.5 to 12.5 µg/mL | MIC [4]: 12.5 to 150 µg/mL | MIC [5]: 12.5 to 150 µg/mL | MIC [6]: 3.5 to 12.5 µg/mL | MIC [7]: 12.5 to 150 µg/mL | MIC [8]: 12.5 to 150 µg/mL | MIC [9]: 12.5 to 150 µg/mL

CCc1cc(C(=O)O)c(=O)[nH]c1-c1ccc2c(c1)ncn2C [Cpd 53, 5-ethyl-6-(1-methyl-1H-benzo[d]imidazol-5-yl)-2-oxo-1,2-dihydropyridine-3-carboxylic acid]
MIC [1]: 3.5 to 12.5 µg/mL (≈ 11.8 to 42 µM) | MIC [2]: 12.5 to 150 µg/mL (≈ 42 to 505 µM) | MIC [3]: 12.5 to 150 µg/mL (≈ 42 to 505 µM) | MIC [4]: 12.5 to 150 µg/mL (≈ 42 to 505 µM) | MIC [5]: 12.5 to 150 µg/mL (≈ 42 to 505 µM) | MIC [6]: 12.5 to 150 µg/mL (≈ 42 to 505 µM) | MIC [7]: 12.5 to 150 µg/mL (≈ 42 to 505 µM) | MIC [8]: 12.5 to 150 µg/mL (≈ 42 to 505 µM) | MIC [9]: 12.5 to 150 µg/mL (≈ 42 to 505 µM)

CCc1c(-c2ccc3nn(C)cc3c2)[nH]c(=O)c(C(=O)O)c1O [Cpd 393, 5-ethyl-4-hydroxy-6-(2-methyl-2H-indazol-5-yl)-2-oxo-1,2-dihydropyridine-3-carboxylic acid]
MIC [1]: < 1 µg/mL | MIC [2]: 12.5 to 150 µg/mL (≈ 39.9 to 479 µM) | MIC [3]: 3.5 to 12.5 µg/mL (≈ 11.2 to 39.9 µM) | MIC [4]: 3.5 to 12.5 µg/mL (≈ 11.2 to 39.9 µM) | MIC [5]: 3.5 to 12.5 µg/mL (≈ 11.2 to 39.9 µM) | MIC [6]: 12.5 to 150 µg/mL (≈ 39.9 to 479 µM) | MIC [7]: 3.5 to 12.5 µg/mL (≈ 11.2 to 39.9 µM) | MIC [8]: 12.5 to 150 µg/mL (≈ 39.9 to 479 µM) | MIC [9]: 12.5 to 150 µg/mL (≈ 39.9 to 479 µM)

Cc1c(-c2ccc3c(cnn3C)c2)[nH]c(=O)c(C(=O)O)c1O [Cpd 394, 4-hydroxy-5-methyl-6-(1-methyl-1H-indazol-5-yl)-2-oxo-1,2-dihydropyridine-3-carboxylic acid]
MIC [1]: 3.5 to 12.5 µg/mL (≈ 11.7 to 41.8 µM) | MIC [2]: 12.5 to 150 µg/mL (≈ 41.8 to 501 µM) | MIC [3]: 12.5 to 150 µg/mL (≈ 41.8 to 501 µM) | MIC [4]: < 1 µg/mL | MIC [5]: 12.5 to 150 µg/mL (≈ 41.8 to 501 µM) | MIC [6]: 12.5 to 150 µg/mL (≈ 41.8 to 501 µM) | MIC [7]: < 1 µg/mL | MIC [8]: 12.5 to 150 µg/mL (≈ 41.8 to 501 µM) | MIC [9]: 12.5 to 150 µg/mL (≈ 41.8 to 501 µM)

CCc1c(-c2ccc3c(ccn3-c3cccc(N4CCCC4)c3)c2)[nH]c(=O)c(C(=O)O)c1O [Cpd 439, 5-ethyl-4-hydroxy-2-oxo-6-(1-(3-(pyrrolidin-1-yl)phenyl)-1H-indol-5-yl)-1,2-dihydropyridine-3-carboxylic acid]
MIC [1]: 1 to 3.5 µg/mL (≈ 2.25 to 7.89 µM) | MIC [2]: 3.5 to 12.5 µg/mL (≈ 7.89 to 28.2 µM) | MIC [3]: 12.5 to 150 µg/mL (≈ 28.2 to 338 µM) | MIC [4]: 12.5 to 150 µg/mL (≈ 28.2 to 338 µM) | MIC [5]: 12.5 to 150 µg/mL (≈ 28.2 to 338 µM) | MIC [6]: 12.5 to 150 µg/mL (≈ 28.2 to 338 µM) | MIC [7]: 12.5 to 150 µg/mL (≈ 28.2 to 338 µM) | MIC [8]: 12.5 to 150 µg/mL (≈ 28.2 to 338 µM) | MIC [9]: 12.5 to 150 µg/mL (≈ 28.2 to 338 µM)

Cc1c(-c2ccc3c(c2)cc(CNCC(C)C)n3C)[nH]c(=O)c(C(=O)O)c1O [Cpd 353, 4-hydroxy-6-(2-((isobutylamino)methyl)-1-methyl-1H-indol-5-yl)-5-methyl-2-oxo-1,2-dihydropyridine-3-carboxylic acid]
MIC [1]: < 1 µg/mL | MIC [2]: 12.5 to 150 µg/mL (≈ 32.6 to 391 µM) | MIC [3]: 3.5 to 12.5 µg/mL (≈ 9.13 to 32.6 µM) | MIC [4]: 1 to 3.5 µg/mL (≈ 2.61 to 9.13 µM) | MIC [5]: 3.5 to 12.5 µg/mL (≈ 9.13 to 32.6 µM) | MIC [6]: 3.5 to 12.5 µg/mL (≈ 9.13 to 32.6 µM) | MIC [7]: < 1 µg/mL | MIC [8]: 12.5 to 150 µg/mL (≈ 32.6 to 391 µM) | MIC [9]: 12.5 to 150 µg/mL (≈ 32.6 to 391 µM)

CCc1c(-c2ccc3[nH]ncc3c2)[nH]c(=O)c(C(=O)O)c1O [Cpd 392, 5-ethyl-4-hydroxy-6-(1H-indazol-5-yl)-2-oxo-1,2-dihydropyridine-3-carboxylic acid]
MIC [1]: 3.5 to 12.5 µg/mL (≈ 11.7 to 41.8 µM) | MIC [2]: 12.5 to 150 µg/mL (≈ 41.8 to 501 µM) | MIC [3]: 12.5 to 150 µg/mL (≈ 41.8 to 501 µM) | MIC [4]: 3.5 to 12.5 µg/mL (≈ 11.7 to 41.8 µM) | MIC [5]: 12.5 to 150 µg/mL (≈ 41.8 to 501 µM) | MIC [6]: 3.5 to 12.5 µg/mL (≈ 11.7 to 41.8 µM) | MIC [7]: 12.5 to 150 µg/mL (≈ 41.8 to 501 µM) | MIC [8]: 12.5 to 150 µg/mL (≈ 41.8 to 501 µM) | MIC [9]: 12.5 to 150 µg/mL (≈ 41.8 to 501 µM)

CCc1c(-c2ccc3cc(N(C)C)ccc3c2)[nH]c(=O)c(C(=O)O)c1O [Cpd 428, 6-(6-(dimethylamino)naphthalen-2-yl)-5-ethyl-4-hydroxy-2-oxo-1,2-dihydropyridine-3-carboxylic acid]
MIC [1]: < 1 µg/mL | MIC [2]: < 1 µg/mL | MIC [3]: 12.5 to 150 µg/mL (≈ 35.5 to 426 µM) | MIC [4]: 12.5 to 150 µg/mL (≈ 35.5 to 426 µM) | MIC [5]: 12.5 to 150 µg/mL (≈ 35.5 to 426 µM) | MIC [6]: 12.5 to 150 µg/mL (≈ 35.5 to 426 µM) | MIC [7]: 12.5 to 150 µg/mL (≈ 35.5 to 426 µM) | MIC [8]: 12.5 to 150 µg/mL (≈ 35.5 to 426 µM) | MIC [9]: 12.5 to 150 µg/mL (≈ 35.5 to 426 µM)
